Data taken from US20240033207A1, “TOPICALLY ADMINISTRABLE LYSATE (LY) OF DEDIFFERENTIATED CELLS OF THE PLANT HELICHRYSUM STOECHAS FOR ELIMINATING OR REDUCING INFLAMMATION OF THE SKIN” (SOCIETE D'EXPLOITATION DE PRODUITS POUR LES INDUSTRIES …, priority 2020, published 2024).
Marks after values point to notes of the source that are not given here.

Test system: normal human keratinocytes (NHEK) cocultured with dendritic cells (DC)
Assay: Coculture of primary human keratinocytes with dendritic cells, PMA/A23187/PUFA stimulation, lipid mediators in supernatant by LC-MS/MS
Format: cell-based
Text: Dendritic cells form part of the cells of the cutaneous immune system, and they are involved in the early inflammatory response. This model is targeted at mimicking the interactions which take place naturally in the skin between the keratinocytes and the cells of the immune system, and it makes it possible to evaluate the impact of active principles on the processes of resolution of inflammation. Briefly, normal human keratinocytes (NHEK) are inoculated in inserts and cultured without contact with dendritic cells (DC) inoculated in the bottom of the wells. The cells are pretreated with the composition CA or glycerol. After 20 hours of incubation, the inflammatory stimulus (mixture of phorbol 12-myristate 13-acetate (PMA) and of calcium ionophore A23187), polyunsaturated fatty acids (PUFAs, lipid precursors of inflammation mediators, eicosanoids) and the compounds (composition CA or glycerol) were again added and incubated for 1 hour. Subsequently, the culture supernatants were collected for analysis of lipid mediators. The experiments were replicated three times. […] The amounts of 5-HETE, LTB4, 12-HETE, 15-HETE and 17-HDOHE are measured by the use of an LC-MS/MS method using a UPLC system (Agilent LC1290 Infinity) coupled to an Agilent 6490 triple quadrupole mass spectrometer (Agilent Technologies) equipped with electrospray ionization operating in negative mode, and are expressed in picograms per culture well (pg/well). The values obtained were expressed as mean+/-sem [standard error of the mean=standard deviation/square root (number of values)]. For each condition, the percentages of activation were calculated as follows: % activation=[mean (condition)]/[mean (stimulated cells)]×100-100. • stimulated cells: PMA/A23187/PUFA-treated cells in the case where the condition studied is the treatment with glycerol. • stimulated cells: cells treated with PMA/A23187/PUFA+0.1% DMSO in the case where the condition studied is the treatment with the composition CA. The statistical analysis was carried out by a Student's test and a significance threshold was set at 5%, the conditions being compared in pairs. A difference between the effectiveness of two products was considered: • significant if p<0.05; • “at the limit of significance” if 0.05≤p<0.1; • and not significant if p>0.1.

[1] = 0.01%, PMA/A23187/PUFA-stimulated coculture supernatant, proresolving mediator
[2] = 0.01%, vs respective stimulated cells (PMA/A23187/PUFA for glycerol, + 0.1% DMSO for composition CA)
[3] = 0.05%, PMA/A23187/PUFA-stimulated NHEK/DC coculture supernatant, proinflammatory mediator
[4] = 0.05%, vs PMA/A23187/PUFA-treated cells

For `OCC(O)CO` [Glycerol], the “12-HETE (pg/well) Mean +/− SEM” value [1] was 15 +/− 1 pg/well, the “15-HETE (pg/well) Mean +/− SEM” value [1] was 273 +/− 26 pg/well and the “17-HDOHE (pg/well) Mean +/− SEM” value [1] was 16654 +/− 1409 pg/well. The 12-HETE % activation [2] was 58%^15, the 15-HETE % activation [2] was 63%* and the 17-HDOHE % activation [2] was “+13%”. The “5-HETE (pg/well) Mean +/− SEM” value [3] was 1152 +/− 201 pg/well, the “LTB4 (pg/well) Mean +/− SEM” value [3] was 400 +/− 38 pg/well and the 5-HETE % activation [4] was 144%*. For the same molecule, the LTB4 % activation [4] was 88%*.
